Reference: patent US20250034173A1, “PYRIDO[4,3-D]PYRIMIDINE COMPOUNDS” (PFIZER INC., priority 2023, published 2025)

Legend:
[1] = tested on: PANC08.13 (pancreatic cancer cell line); assay: KRAS Cell Titer Glo (CTG) cell proliferation assay, PANC08.13; format: cell-based; details: PANC08.13 cells, 7-day CTG, geomean IC50
From the text: (§1) The CellTiter-Glo® (CTG) Luminescent Cell Viability Assay is a homogeneous method of determining the number of viable cells in culture based on quantitation of the ATP present, an indicator of metabolically active cells. The CTG is designed for use with multi-well formats, making it ideal for automated high-throughput screening (HTS), cell proliferation and cytotoxicity assays. The homogeneous assay procedure involves adding the single reagent (CellTiter-Glo® Reagent) directly to cells cultured in serum-supplemented medium. Cell washing, removal of medium and multiple pipetting steps are not required. The system detects as few as 15 cells per well in a 384-well format in 10 minutes after adding reagent and mixing.
(§2) Cells are grown in humidified 5% CO2 incubator at 37° C. using the culture conditions outlined below. All cell culture media reagents were purchased from Gibco. Cell lines purchased from ATCC: H358 (non-small cell lung cancer cell line), SW620 (colorectal cancer cell line), PANC08.13 (RPM11640+10% FBS+10 units/mL Insulin, pancreatic cancer cell line). Test and control compounds are dispensed as nanoliter drops according to desired final concentrations in 0.1% DMSO using Echo Acoustic Dispenser onto 384 assay plates (Corning, Cat #3764) prior to cell seeding. Cells were seeded in 40 μL volume per well at the following cell densities (cells per well): H358 (300), SW620 (750), PANC 08.13 (600). Cells are incubated in the presence of compound for 7-days. Viability is determined on Day 7 using CellTiter-Glo® (CTG) Luminescent Cell Viability Assay (Promega). CTG is added to a […] per well and incubated at room temperature for 15 minutes before luminescence is captured using an EnVision Reader with LUM384 US protocol. Data is analyzed using Activity Base to determine compound response and will be represented either as a percent effect (PCTEFF) or percent control (PCTOCTL) as described: Zero percent effect control (ZPE) (Negative control)—100% DMSO. Hundred percent effect (HPE) (Positive control)—1 uM Trametinib (GSK1120212, MEK inhibitor) (4 nl of 10 mM and 36 nl of DMSO per well). The following equations/nomenclature are used (% Effect; PCTEFF) and (% of Control; PCTOCTL): PCTEFF: 100*(Raw_Data_Value−HPE/ZPE−HPE), PCTOCTL: 100*Raw_Data_Value/User_Defined_Array), where the User_Defined_Array is either summarized HPE or ZPE.
(§3) Cells with “nd” indicate compound not tested in that particular assay at time of writing. It is to be understood that the geomean IC50 data may change slightly over time with increasing repeat data (ie: increasing n #).

KRAS G12D = KRAS G12D (Homo sapiens (Human), UniProt P01116, G12D); assay: SPR binding affinity and kinetics, GTPγS-loaded KRAS G12D; details: GTPγS loaded protein, geomean
From the text: (§4) No additional regeneration was used.
(§5) Compound dissociation was monitored for at least 3600 seconds. […] No additional regeneration was used.
(§6) The adequateness of the fit was judged by c2 values and the randomness of residue distribution.

KRAS G12C = KRAS G12C (Homo sapiens (Human), UniProt P01116, G12C); assay: SPR binding affinity and kinetics, GTPγS-loaded KRAS G12C; details: GTPγS loaded protein, geomean
From the text: as §4, §5, §6

[2] = tested on: H358 (non-small cell lung cancer cell line); assay: KRAS Cell Titer Glo (CTG) cell proliferation assay, H358; format: cell-based; details: H358 cells, 7-day CTG, geomean IC50
From the text: as §1, §2, §3

KRAS G12V = KRAS G12V (Homo sapiens (Human), UniProt P01116, G12V); assay: SPR binding affinity and kinetics, GTPγS-loaded KRAS G12V; details: GTPγS loaded protein, geomean
From the text: as §4, §5, §6

KRAS Wild Type = KRAS Wild Type (Homo sapiens (Human), UniProt P01116); assay: SPR binding affinity and kinetics, GTPγS-loaded KRAS Wild Type; details: GTPγS loaded protein, geomean
From the text: as §4, §5, §6

[3] = tested on: SW620 (colorectal cancer cell line); assay: KRAS Cell Titer Glo (CTG) cell proliferation assay, SW620; format: cell-based; details: SW620 cells, 7-day CTG, geomean IC50
From the text: as §1, §2, §3

[4] = Homo sapiens, PANC-08-13, 168 h

| Molecule | IC50 [1, 4] | Kd (KRAS G12D) | Kd (KRAS G12C) | IC50 ([2]; Homo sapiens, NCI-H358, 168 h) | Kd (KRAS G12V) | Kd (KRAS Wild Type) | IC50 ([3]; Homo sapiens, SW-620, 168 h) | IC50 [1] | IC50 [2] | IC50 [3] |
| --- | --- | --- | --- | --- | --- | --- | --- | --- | --- | --- |
| Fc1c(-c2c(C3CC3)c(Cl)cc3[nH]ncc23)nc2c3c(nc(OC[C@@]45CCCN4CC(=C4CC4)C5)nc13)N1CCCOC[C@H]1CO2 [Example 40, (8aS)-5-(6-chloro-5-cyclopropyl-1H-indazol-4-yl)-2-{[(7aS)-2-cyclopropylidenetetrahydro-1H-pyrrolizin-7a(5H)-yl]methoxy}-4-fluoro-8a,9,12,13-tetrahydro-8H,11H-7,10-dioxa-1,3,6,13a-tetraazanaphtho[1,8-ab]heptalene] | 13 nM | 4 nM | 7 nM | 52 nM | 6 nM | 6 nM | 60 nM |  |  |  |
| C=C1CN2CCC[C@@]2(COc2nc3c4c(nc(-c5c(CC)c(Cl)cc6[nH]ncc56)c(F)c4n2)OC[C@@H]2COCCCN32)C1 [Example 33, (8aS)-5-(6-chloro-5-ethyl-1H-indazol-4-yl)-4-fluoro-2-{[(7aS)-2-methylidenetetrahydro-1H-pyrrolizin-7a(5H)-yl]methoxy}-8a,9,12,13-tetrahydro-8H,11H-7,10-dioxa-1,3,6,13a-tetraazanaphtho[1,8-ab]heptalene] | 18 nM | 6 nM | 6 nM | 58 nM | 6 nM | 8 nM | 103 nM |  |  |  |
| C=C1CN2C[C@H](O)C[C@@]2(COc2nc3c4c(nc(-c5c(C6CC6)c(Cl)cc6[nH]ncc56)c(F)c4n2)OC[C@@H]2COCCCN32)C1 [Example 25, (2R,7aR)-7a-({[(8aS)-5-(6-chloro-5-cyclopropyl-1H-indazol-4-yl)-4-fluoro-8a,9,12,13-tetrahydro-8H,11H-7,10-dioxa-1,3,6,13a-tetraazanaphtho[1,8-ab]heptalen-2-yl]oxy}methyl)-6-methylidenehexahydro-1H-pyrrolizin-2-ol] | 13 nM | 3 nM | 2 nM | 41 nM | 2 nM | 4 nM | 22 nM |  |  |  |
| C=C1CN2CCC[C@@]2(COc2nc3c4c(nc(-c5c6c(cc7[nH]ncc57)CCC[C@H]6OC)c(F)c4n2)OC[C@@H]2COCCCN32)C1 (single isomer, unassigned) [Example 56, (8aS)-4-fluoro-5-[(5R*)-5-methoxy-5,6,7,8-tetrahydro-1H-benzo[f]indazol-4-yl]-2-{[(7aS)-2-methylidenetetrahydro-1H-pyrrolizin-7a(5H)-yl]methoxy}-8a,9,12,13-tetrahydro-8H,11H-7,10-dioxa-1,3,6,13a-tetraazanaphtho[1,8-ab]heptalene] | 135 nM | 34 nM | 10 nM | 172 nM | 23 nM | 23 nM | 63 nM |  |  |  |
| (8aS)-5-(5-chloro-6-fluoro-1H-indazol-4-yl)-4-fluoro-2-{[(7aS)-2-methylidenetetrahydro-1H-pyrrolizin-7a(5H)-yl]methoxy}-8a,9,12,13-tetrahydro-8H,11H-7,10-dioxa-1,3,6,13a-tetraazanaphtho[1,8-ab]heptalene [Example 9] |  | 270 nM | 430 nM |  | 303 nM | 389 nM |  | 140 nM | 758 nM | 914 nM |
| Fc1c(-c2c(C3CC3)c(Cl)cc3[nH]ncc23)nc2c3c(nc(OC[C@@]45CCCN4CC(=C4CCOCC4)C5)nc13)N1CCCOC[C@H]1CO2 [Example 42, (8aS)-5-(6-chloro-5-cyclopropyl-1H-indazol-4-yl)-4-fluoro-2-{[(7aS)-2-(oxan-4-ylidene)tetrahydro-1H-pyrrolizin-7a(5H)-yl]methoxy}-8a,9,12,13-tetrahydro-8H,11H-7,10-dioxa-1,3,6,13a-tetraazanaphtho[1,8-ab]heptalene] | 44 nM | 24 nM | 33 nM | 288 nM | 32 nM | 68 nM | 233 nM |  |  |  |
| C=C1CN2CCC[C@@]2(COc2nc3c4c(nc(-c5c6c(cc7[nH]ncc57)CCC[C@@H]6C)c(F)c4n2)OC[C@@H]2COCCCN32)C1 [Example 32, (8aS)-4-fluoro-2-{[(7aS)-2-methylidenetetrahydro-1H-pyrrolizin-7a(5H)-yl]methoxy}-5-[(5S)-5-methyl-5,6,7,8-tetrahydro-1H-benzo[f]indazol-4-yl]-8a,9,12,13-tetrahydro-8H,11H-7,10-dioxa-1,3,6,13a-tetraazanaphtho[1,8-ab]heptalene] | 161 nM | 19 nM | 39 nM | 768 nM | 36 nM | 46 nM | 1420 nM |  |  |  |
| C=C1CN2CCC[C@@]2(COc2nc3c4c(nc(-c5c([C@@H]6C[C@@H]6C)c(Cl)cc6[nH]ncc56)c(F)c4n2)OC[C@@H]2COCCCN32)C1 (single isomer, unassigned) [Example 30, (8aS)-5-{6-chloro-5-[(1R*,2S*)-2-methylcyclopropyl]-1H-indazol-4-yl}-4-fluoro-2-{[(7aS)-2-methylidenetetrahydro-1H-pyrrolizin-7a(5H)-yl]methoxy}-8a,9,12,13-tetrahydro-8H,11H-7,10-dioxa-1,3,6,13a-tetraazanaphtho[1,8-ab]heptalene] | 4 nM | 2 nM | 3 nM | 51 nM | 4 nM | 4 nM | 102 nM |  |  |  |
| C=C1CN2CCC[C@@]2(COc2nc3c4c(nc(-c5c([C@@H]6C[C@H]6C)c(Cl)cc6[nH]ncc56)c(F)c4n2)OC[C@@H]2COCCCN32)C1 (single isomer, unassigned) [Example 51, (8aS)-5-{6-chloro-5-[(1R*,2R*)-2-methylcyclopropyl]-1H-indazol-4-yl}-4-fluoro-2-{[(7aS)-2-methylidenetetrahydro-1H-pyrrolizin-7a(5H)-yl]methoxy}-8a,9,12,13-tetrahydro-8H,11H-7,10-dioxa-1,3,6,13a-tetraazanaphtho[1,8-ab]heptalene] | 10 nM | 6 nM | 8 nM | 27 nM | 7 nM | 12 nM | 40 nM |  |  |  |
| Fc1c(-c2c(C3CC3)c(Cl)cc3[nH]ncc23)nc2c3c(nc(OC[C@@]45CCCN4CC4(CC4)C5)nc13)N1CCCOC[C@H]1CO2 [Example 18, (8aS)-2-{[(7′aS)-dihydro-1′H,3′H-spiro[cyclopropane-1,2′-pyrrolizin]-7′a(5′H)-yl]methoxy}-5-(6-chloro-5-cyclopropyl-1H-indazol-4-yl)-4-fluoro-8a,9,12,13-tetrahydro-8H,11H-7,10-dioxa-1,3,6,13a-tetraazanaphtho[1,8-ab]heptalene] | 68 nM | 34 nM | 64 nM | 304 nM | 61 nM | 61 nM | 479 nM |  |  |  |
| C/C=C1/CN2CCC[C@@]2(COc2nc3c4c(nc(-c5c(C6CC6)c(Cl)cc6[nH]ncc56)c(F)c4n2)OC[C@@H]2COCCCN32)C1 [Example 27, (8aS)-5-(6-chloro-5-cyclopropyl-1H-indazol-4-yl)-2-{[(2E,7aS)-2-ethylidenetetrahydro-1H-pyrrolizin-7a(5H)-yl]methoxy}-4-fluoro-8a,9,12,13-tetrahydro-8H,11H-7,10-dioxa-1,3,6,13a-tetraazanaphtho[1,8-ab]heptalene] | 9 nM | 4 nM | 3 nM | 72 nM | 6 nM | 9 nM | 74 nM |  |  |  |
